This note sets out measurements from patent US20140336182A1, “Aurora Kinase Modulators and Method of Use” (Amgen Inc., priority 2013, published 2014).

A value given as a limit tells only on which side of the number the result lay.

The subject of one test is HeLa cells. Kind of test: HeLa cell 24 hr ploidy assay (DNA content). In kind it is cell-based. The note with it: Homo sapiens, HeLa, 4N ploidy, average, read-out: 24h_4NPloidy EC50_IP (uM Avg). In outline:
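HeLa cells (1×10^4/well, MEM+10% FBS) cultured 24 h, treated with serially diluted compounds (0.25% DMSO final), then fixed, permeabilized and stained with Hoechst 33342 (0.5 ug/ml). Imaging quantified % 4N and >4N cells; EC50 IP and EC50 transit derived from dose curves.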
On to `COc1cnc2c(Oc3ccc(Nc4nnc(N5CCCCC5)c5ccccc45)cc3)ccnc2c1` [compound 151], for which the EC50 worked out at 0.128 µM. On the same count and under the same terms, in the case of `COc1cc2nccc(Oc3ccc(Nc4nnc(-c5cccc(C)n5)c5ccccc45)cc3)c2cc1OC` [compound 150] it was 0.017 µM; in that of `COc1cc2nccc(Oc3ccc(Nc4nnc(-c5ccccc5)c5ccccc45)cc3)c2cc1OC` [compound 90], 0.013 µM; in that of `COc1cc2nccc(Oc3ccc(Nc4nnc(-c5cc(C)ccn5)c5ccccc45)cc3)c2cn1` [compound 121], 0.132 µM. The same measure, in the same setting: in the case of `COc1cnc2c(Oc3ccc(Nc4nnc(-c5ccc(OC)nc5)c5ccccc45)cc3)ccnc2c1` [compound 158] it was 0.075 µM; in that of `COc1cnc2c(Oc3ccc(Nc4nnc(-c5ccc(OC(F)(F)F)cc5)c5ccccc45)cc3)ccnc2c1` [compound 163], greater than 1.2 µM; in that of `COc1cccc(-c2nnc(Nc3ccc(Oc4ccnc5cc(OC)cnc45)cc3)c3ccccc23)c1` [compound 139], 0.057 µM. On the same count and under the same terms, in the case of `CCc1cc(-c2ccccc2)nnc1Nc1ccc(Oc2ccnc3cc(OC)cnc23)cc1` [compound 108] it was 0.083 µM; in that of `COc1cnc2c(Oc3ccc(Nc4nnc(-c5nc(C)cs5)c5ccccc45)cc3)ccnc2c1` [compound 82, N-(4-((7-(methyloxy)-1,5-naphthyridin-4-yl)oxy)phenyl)-4-(4-methyl-1,3-thiazol-2-yl)-1-phthalazinamine], 0.061 µM; in that of `COc1ccc(F)cc1-c1nnc(Nc2ccc(Oc3ccnc4cc(C(N)=O)ccc34)cc2)c2ccccc12` [Example 47, 4-(4-(4-(5-fluoro-2-methoxyphenyl)phthalazin-1-ylamino)phenoxy)quinoline-7-carb oxamide], greater than 1.2 µM. On to `COc1cnc2c(Oc3ccc(Nc4nnc(-c5ccc(C(F)(F)F)cc5)c5ccccc45)cc3)ccnc2c1` [compound 146, N-(4-((7-(methyloxy)-1,5-naphthyridin-4-yl)oxy)phenyl)-4-(4-(trifluoromethyl)phenyl)-1-phthalazinamine], for which the EC50 is 0.057 µM. The same measure, in the same setting: in the case of `Cc1ccc(-c2nnc(Nc3ccc(Oc4ccnc5cc(C#N)ccc45)cc3)c3ccccc23)nc1` [compound 122] it was 0.053 µM.

Still in this test, the particulars now being: Homo sapiens, HeLa, HeLa cells, 4N ploidy, average, read-out: 24h_4NPloidy EC50_IP (uM Avg).
Take `COc1ccc2nccc(Sc3ccc(Nc4nnc(-c5ccccc5)c5ccccc45)cc3)c2c1` [compound 292, N-(4-((6-(methyloxy)-4-quinolinyl)thio)phenyl)-4-phenyl-1-phthalazinamine]: the EC50 worked out at 0.012 µM. Same read-out and setting: in the case of `Clc1ccc(-c2nnc(Nc3ccc(Oc4ccnc5[nH]ccc45)cc3)c3ccccc23)cc1` [compound 241] it was 0.101 µM; in that of `N#Cc1cc2nccc(Sc3ccc(Nc4nnc(-c5ccc6c(c5)OCO6)c5ccccc45)cc3)c2s1` [compound 457], 0.021 µM; in that of `COc1cnc2c(Sc3ccc(Nc4nnc(-c5ccc(C)c(OC)c5)c5ccccc45)cc3)ccnc2c1` [compound 529], 0.006 µM. For the molecule `COc1ccc2c(Sc3ccc(Nc4nnc(-c5ccccc5)c5ccccc45)cc3)ccnc2c1` [compound 331], the EC50 was 0.021 µM. In the case of `O=c1ccc2nccc(Oc3ccc(Nc4nnc(-c5ccc(Cl)cc5)c5ccccc45)cc3)c2[nH]1` [compound 569], the EC50 was 0.115 µM. Consider `COc1ccc2c(Oc3ccc(Nc4nnc(-c5ccc(C(F)(F)F)cc5)c5ccccc45)cc3)c(F)cnc2c1` [Example 39, N-(4-(3-fluoro-7-methoxyvquinolin-4-yloxy)phenyl)-4-(4-(trifluoromethyl)phenyl) phthalazin-1-amine], for which the EC50 was no less than 1.2 µM. Still for that read-out and setting: in the case of `c1ccc(-c2nnc(Nc3ccc(Cn4cnc5ccccc54)cc3)c3ccccc23)cc1` [compound 340] it was no less than 1.2 µM. Still for that read-out and setting: in the case of `COc1cnc2c(Oc3ccc(Nc4nnc(-c5ccc6c(c5)OCO6)c5ccccc45)cc3)ccnc2c1` [compound 306, 4-(1,3-benzodioxol-5-yl)-N-(4-((7-(methyloxy)-1,5-naphthyridin-4-yl)oxy)phenyl)-1-phthalazinamine] it was 0.006 µM; in that of `COc1cnc2c(Oc3ccc(Nc4nnc(-c5cc(C)cc(C)c5)c5ccccc45)cc3)ccnc2c1` [compound 188], 0.051 µM. As for `Cc1csc(-c2nnc(Nc3ccc(Sc4ccnc5ccc(OC(F)(F)F)cc45)cc3)c3ccccc23)c1` [compound 572], the EC50 came out at 0.055 µM. On the same count and under the same terms, in the case of `COc1cnc2c(Sc3ccc(Nc4nnc(-c5ccccc5F)c5ccccc45)cc3)ccnc2c1` [compound 495] it was 0.024 µM; in that of `COc1ccc2nccc(Oc3ccc(Nc4nnc(-c5cc(C)cs5)c5ccccc45)cc3)c2n1` [compound 552], 0.01 µM.

On to `COc1cnc2c(Sc3ccc(Nc4nnc(N5CCN(S(C)(=O)=O)CC5)c5ccccc45)cc3)ccnc2c1` [compound 605], for which the EC50 is 0.018 µM. The same measure, in the same setting: in the case of `O=C(c1cc2nccc(Sc3ccc(Nc4nnc(-c5ccc(Cl)cc5)c5ccccc45)cc3)c2s1)N1CCOCC1` [compound 314] it was 0.03 µM; in that of `COc1cnc2c(Sc3ccc(Nc4nnc(OC)c5ccccc45)cc3)ccnc2c1` [Example 402, 4-Methoxy-N-(4-(7-methoxy-1,5-naphthyridin-4-ylthio)phenyl)phthalazin-1-amine], 0.066 µM. Still for that read-out and setting: in the case of `COc1cnc2c(Sc3ccc(Nc4nnc(N5CCn6ccnc6C5)c5ccccc45)cc3)ccnc2c1` [compound 576] it was 0.013 µM. On the same count and under the same terms, in the case of `COc1cnc2c(Oc3ccc(Nc4nnc(-c5ccc(Cl)nc5)c5ccccc45)cc3)ccnc2c1` [compound 235, 4-(6-chloro-3-pyridinyl)-N-(4-((7-(methyloxy)-1,5-naphthyridin-4-yl)oxy)phenyl)-1-phthalazinamine] it was 0.058 µM; in that of `COCCOc1cc2nccc(Oc3ccc(Nc4nnc(-c5ccccc5)c5ccccc45)cc3)c2cc1OC` [Example 393, N-(4-(6-Methoxy-7-(2-methoxyethoxy)quinolin-4-yloxy)phenyl)-4-phenylphthalazin-1-amine], 0.001 µM.

For `Clc1ccc(-c2nnc(Nc3ccc(Oc4ncnc5[nH]ccc45)cc3)c3ccccc23)cc1` [compound 290], the EC50 turned out to be 0.397 µM. Take `COc1cnc2c(Sc3ccc(Nc4nnc(-c5ccc(Cl)cn5)c5ccccc45)cc3)ccnc2c1` [compound 304, 4-(5-chloro-2-pyridinyl)-N-(4-((7-(methyloxy)-1,5-naphthyridin-4-yl)thio)phenyl)-1-phthalazinamine]: the EC50 is 0.008 µM. On the same count and under the same terms, in the case of `COc1cc2nccc(Sc3ccc(Nc4nnc(-c5ccccc5)c5ccccc45)cc3)c2cn1` [compound 353] it was 0.007 µM; in that of `CCc1cc(-c2ccc(C)cc2)nnc1Nc1ccc(Sc2ccnc3cc(OC)cnc23)cc1` [compound 322], 0.017 µM; in that of `COc1cnc2c(Oc3ccc(Nc4nnc(-c5cc(Cl)cs5)c5ccccc45)cc3)ccnc2c1` [compound 316], 0.027 µM. In the case of `COc1cnc2c(Sc3ccc(Nc4nnc(-c5ccc(OC)nc5)c5ccccc45)cc3)ccnc2c1` [compound 583], the EC50 was determined as 0.005 µM.

The same test, now with this note: Homo sapiens, HeLa, HeLa cells, average, read-out: 24h_4NPloidy EC50_IP (uM Avg).
With `COc1cnc2c([S+]([O-])c3ccc(Nc4nnc(-c5ccc(F)cc5)c5ccccc45)cc3)ccnc2c1` (centres unmarked) [Example 410, 4-(4-fluorophenyl)-N-(4-(7-methoxy-1,5-naphthyridin-4-ylsulfinyl)phenyl)phthalazin-1-amine], the EC50 was 0.26 µM.
